Data: ChEMBL document CHEMBL5154870, “Discovery of novel glutaminase 1 allosteric inhibitor with 4-piperidinamine linker and aromatic heterocycles” (Eur J Med Chem, 2022)
The source made the active and inactive calls. No cut-off for these calls is given here.

Tests used:
[1] = AUC (0 to infinity) in Sprague-Dawley rat at 10 mg/kg, ip measured for 72 hrs by LC-MS/MS analysis; assay type: ADME, organism-based; design: dose 10 mg/kg, time 72 hrs, route ip; details: in vivo
HCT-116 [2] = test: Induction of apoptosis in human HCT-116 cells assessed as late apoptotic cells at 30 nM measured after 24 hrs by Annexin V-FITC/PI staining based flow cytometry method (reference value: 3.55 %); assay type: functional
[3] = biological target: T1, Glutaminase kidney isoform, mitochondrial (Homo sapiens, UniProt O94925); test: Allosteric inhibition of human GLS1 using glutamine as substrate incubated for 60 mins by NADH/NADPH-based absorbance analysis
T1 sequence (O94925 whole entry): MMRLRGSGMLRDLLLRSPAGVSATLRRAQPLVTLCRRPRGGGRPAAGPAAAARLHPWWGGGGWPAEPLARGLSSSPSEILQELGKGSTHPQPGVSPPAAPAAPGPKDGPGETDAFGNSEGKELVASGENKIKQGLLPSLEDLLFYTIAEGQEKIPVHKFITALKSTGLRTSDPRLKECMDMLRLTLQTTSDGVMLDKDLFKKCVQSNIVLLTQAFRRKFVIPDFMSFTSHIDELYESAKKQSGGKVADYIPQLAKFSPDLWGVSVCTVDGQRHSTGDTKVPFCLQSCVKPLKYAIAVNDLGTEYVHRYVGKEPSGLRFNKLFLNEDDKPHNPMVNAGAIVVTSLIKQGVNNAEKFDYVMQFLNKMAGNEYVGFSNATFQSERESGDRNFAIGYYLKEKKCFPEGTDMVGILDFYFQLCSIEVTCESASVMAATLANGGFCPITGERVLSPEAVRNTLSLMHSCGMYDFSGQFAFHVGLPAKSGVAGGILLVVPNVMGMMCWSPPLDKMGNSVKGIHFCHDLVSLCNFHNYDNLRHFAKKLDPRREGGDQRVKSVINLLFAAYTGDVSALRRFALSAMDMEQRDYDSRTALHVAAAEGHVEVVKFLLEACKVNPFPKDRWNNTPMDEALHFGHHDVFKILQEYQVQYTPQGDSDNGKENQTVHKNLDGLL

[4] = biological target: T1, Glutaminase kidney isoform, mitochondrial; test: Binding affinity to human GLS1 assessed as dissociation constant by surface plasmon resonance analysis
HCT-116 [5] = test: Induction of apoptosis in human HCT-116 cells assessed as late apoptotic cells at 50 nM measured after 24 hrs by Annexin V-FITC/PI staining based flow cytometry method (reference value: 3.55 %); assay type: functional
[6] = Metabolic stability in human liver microsomes assessed as half life at 10 uM by LC-MS/MS analysis; assay type: ADME, Microsome; details: liver microsomes
[7] = AUC (0 to t) in Sprague-Dawley rat at 5 mg/kg, iv measured for 72 hrs by LC-MS/MS analysis; assay type: ADME, organism-based; design: dose 5 mg/kg, time 72 hrs, route iv; details: in vivo
[8] = AUC (0 to infinity) in Sprague-Dawley rat at 5 mg/kg, iv measured for 72 hrs by LC-MS/MS analysis; assay type: ADME, organism-based; design: time 72 hrs, dose 5 mg/kg, route iv; details: in vivo
[9] = Metabolic stability in human plasma assessed as parent compound remaining at 1 uM measured after 2 hrs by LC-MS/MS analysis; assay type: ADME, cell-free; details: read-out: Stability
HCT-116 [10] = test: Induction of apoptosis in human HCT-116 cells assessed as late apoptotic cells at 200 nM measured after 24 hrs by Annexin V-FITC/PI staining based flow cytometry method (reference value: 3.55 %); assay type: functional
[11] = Toxicity in nude mouse xenografted with human HCT-116 cells assessed as kidney damage by measuring edema and atrophy at 50 to 100 mg/kg, ip measured after 21 days by H and E staining based analysis; assay type: organism-based; details: in vivo, 504 h, dose 50-100 mg/kg, time 21 day
[12] = MRT (0 to infinity) in Sprague-Dawley rat at 5 mg/kg, iv measured for 72 hrs by LC-MS/MS analysis; assay type: ADME, organism-based; details: in vivo
HCT-116 [13] = test: Induction of apoptosis in human HCT-116 cells assessed as early apoptotic cells at 50 nM measured after 24 hrs by Annexin V-FITC/PI staining based flow cytometry method (reference value: 4.65 %); assay type: functional
[14] = Half life in Sprague-Dawley rat at 5 mg/kg, iv measured for 72 hrs by LC-MS/MS analysis; assay type: ADME, organism-based; details: in vivo
CT26 = test: Antiproliferative activity against mouse CT26 cells overexpressing GLS1 assessed as inhibition of cell proliferation measured after 72 hrs by MTT assay; assay type: functional, cell-based; details: CT26, 72 h
HCT-116 [15] = test: Antiproliferative activity against human HCT-116 cells overexpressing GLS1 assessed as inhibition of cell proliferation measured after 72 hrs by MTT assay; assay type: functional, cell-based; details: HCT-116, 72 h
[16] = Toxicity in BALB/c SPF mouse xenografted with human HCT-116 cells assessed as body weight loss at 50 to 100 mg/kg, ip administered BID for 21 days; assay type: organism-based; details: in vivo, 504 h, dose 50-100 mg/kg, time 21 day
[17] = biological target: T2, Glutaminase kidney isoform, mitochondrial (Homo sapiens) (UniProt O94925); details: HCT-116, filed as negative allosteric modulator, dose 100-300 nM, time 12.0 hrs
T2 sequence (whole entry): T1 sequence (O94925 whole entry)

HCT-116 [18] = test: Induction of apoptosis in human HCT-116 cells assessed as necrotic cells at 50 nM measured after 24 hrs by Annexin V-FITC/PI staining based flow cytometry method (reference value: 0.48 %); assay type: functional
[19] = Apparent volume of distribution in Sprague-Dawley rat at 5 mg/kg, iv measured for 72 hrs by LC-MS/MS analysis; assay type: ADME, organism-based; details: in vivo
[20] = Apparent volume of distribution in Sprague-Dawley rat at 10 mg/kg, ip measured for 72 hrs by LC-MS/MS analysis; assay type: ADME, organism-based; details: in vivo
[21] = biological target: T2, Glutaminase kidney isoform, mitochondrial (Homo sapiens); details: filed as negative allosteric modulator
Description: Binding affinity to human GLS1 assessed as stabilization of protein by measuring change in melting temperature by protein thermal shift assay

[22] = biological target: T2, Glutaminase kidney isoform, mitochondrial (Homo sapiens); details: HCT-116, filed as negative allosteric modulator, dose 100-300 nM, time 12.0 hrs; remark: listed apart in the source
[23] = MRT (0 to infinity) in Sprague-Dawley rat at 10 mg/kg, ip measured for 72 hrs by LC-MS/MS analysis; assay type: ADME, organism-based; details: in vivo
[24] = Toxicity in nude mouse xenografted with human HCT-116 cells assessed as liver damage by measuring edema and atrophy at 50 to 100 mg/kg, ip measured after 21 days by H and E staining based analysis; assay type: organism-based; details: in vivo, 504 h, dose 50-100 mg/kg, time 21 day
HCT-116 [25] = test: Antitumor activity against human HCT-116 cells xenografted in BALB/c SPF mouse assessed as tumor growth inhibition at 100 mg/kg, ip administered BID for 21 days; assay type: functional; details: Mus musculus, HCT-116, 504 h, time 21 day, read-out: TGI
[26] = AUC (0 to t) in Sprague-Dawley rat at 10 mg/kg, ip measured for 72 hrs by LC-MS/MS analysis; assay type: ADME, organism-based; design: time 72 hrs, dose 10 mg/kg, route ip; details: in vivo
HCT-116 [27] = test: Induction of apoptosis in human HCT-116 cells assessed as early apoptotic cells at 200 nM measured after 24 hrs by Annexin V-FITC/PI staining based flow cytometry method (reference value: 4.65 %); assay type: functional
[28] = Cmax in Sprague-Dawley rat at 10 mg/kg, ip measured for 72 hrs by LC-MS/MS analysis; assay type: ADME, organism-based; design: dose 10 mg/kg, time 72 hrs, route ip; details: in vivo
[29] = Toxicity in nude mouse xenografted with human HCT-116 cells assessed as lung damage by measuring edema and atrophy at 50 to 100 mg/kg, ip measured after 21 days by H and E staining based analysis; assay type: organism-based; details: in vivo, 504 h, dose 50-100 mg/kg, time 21 day

## O=C(Cc1ccccc1)Nc1nnc(NC2CCN(c3nnc(NC(=O)c4nccn4Cc4ccc(C(F)(F)F)cc4)s3)CC2)s1
[1]
  AUC(0-inf): 3490 ng·h/mL
HCT-116 [2]
  Activity: 4.99%
[3]
  IC50: 11.9 nM
[4]
  Kd: 52 nM
HCT-116 [5]
  Activity: 5.4%
[6]
  half-life at 10 µM: 194 min
[7]
  AUC(0-t) at 72 h: 6930 ng·h/mL
[8]
  AUC(0-inf): 7310 ng·h/mL
[9]
  remaining at 2 h, 1 µM: 96%
HCT-116 [10]
  Activity: 13.2%
[11]
  Activity: Non-Toxic
[12]
  MRT inf: 4.97 h
HCT-116 [13]
  Activity: 23.4%
[14]
  half-life: 446 min
CT26
  IC50: 320 nM
HCT-116 [15]
  IC50: 51 nM
[16]
  Activity: Non-Toxic
[17]
  inhibition: Active
HCT-116 [18]
  Activity: 0.01%
[19]
  Vd/F: 7.31 L/kg
[20]
  Vd/F: 36.1 L/kg
[21]
  ΔTm: 14.9 °C
[22]
  inhibition: Active
[23]
  MRT inf: 13 h
[24]
  Activity: Non-Toxic
HCT-116 [25]
  inhibition in vivo at 100 mg/kg: 47.5%
[26]
  AUC(0-t) at 72 h: 2900 ng·h/mL
HCT-116 [27]
  Activity: 82.49%
[28]
  Cmax: 262 ng/mL
[29]
  Activity: Non-Toxic
